Data published in the NIST ThermoML archive (doi:10.1016/j.jct.2007.05.016).

Assay: xn = mol fraction of the nth substance listed
Conditions: 101 kPa, Liquid; for speed of sound: Sing-around technique in a fixed-path interferometer

CCCCCCCCCC [decane] + CCCCO
Conditions	mass density, 298.15 K [kg/m3]	mass density, 303.15 K [kg/m3]	mass density, 308.15 K [kg/m3]	speed of sound, 298.15 K [m/s]	speed of sound, 303.15 K [m/s]	speed of sound, 308.15 K [m/s]	viscosity, 298.15 K [mPa·s]
x2 = 0	726.806	723.042	719.23	1234.8	1215.2	1195.6	0.852
x2 = 0.0678	728.769	724.903	721.031	1230.4	1210.6	1191.9	0.845
x2 = 0.1105	730.259	726.415	722.511	1228.8	1209.1	1189.4	0.855
x2 = 0.1614	732.194	728.365	724.437	1227.3	1207.6	1187.9	0.868
x2 = 0.2372	735.44	731.639	727.679	1225.4	1206.1	1185.5	0.895
x2 = 0.3068	738.779	734.994	731.004	1224.1	1204.5	1184.6	0.931
x2 = 0.4278	745.484	741.679	737.66	1222.9	1203.7	1183.8	1.019
x2 = 0.5071	750.606	746.798	742.769	1222.8	1203.8	1184.3	1.102
x2 = 0.5547	754.019	750.194	746.151	1222.9	1203.9	1184.8	1.164
x2 = 0.6068	758.098	754.237	750.219	1223.4	1204.5	1185.6	1.244
x2 = 0.7032	766.65	762.82	758.774	1224.9	1206.3	1187.6	1.432
x2 = 0.8036	777.321	773.625	769.593	1227.9	1210.2	1191.3	1.685
x2 = 0.8498	782.998	779.309	775.279	1229.9	1212.4	1194	1.843
x2 = 0.9015	790.035	786.406	782.421	1232.8	1215.7	1197.9	2.047
x2 = 0.95	797.464	794.041	790.078	1236.2	1219.9	1203.1	2.277

CCCCCC [hexane] + CCCCO
Conditions	mass density, 298.15 K [kg/m3]	mass density, 303.15 K [kg/m3]	mass density, 308.15 K [kg/m3]	speed of sound, 298.15 K [m/s]	speed of sound, 303.15 K [m/s]	speed of sound, 308.15 K [m/s]	viscosity, 298.15 K [mPa·s]
x2 = 0	655.072	650.369	645.767	1077.8	1055.2	1032.9	0.313
x2 = 0.0507	660.196	655.432	650.791	1077.6	1054.9	1032.7	0.323
x2 = 0.101	665.602	660.733	656.143	1079.4	1056.8	1034.5	0.338
x2 = 0.1524	671.434	666.54	661.908	1082.5	1059.9	1037.6	0.356
x2 = 0.2574	684.29	679.54	674.857	1091.7	1069.1	1046.8	0.409
x2 = 0.379	700.46	696.019	691.525	1106.3	1083.7	1062	0.505
x2 = 0.4125	705.163	700.869	696.345	1111.1	1088.5	1066.7	0.547
x2 = 0.4502	710.564	706.47	701.99	1116.7	1094.1	1072.3	0.587
x2 = 0.5121	719.663	715.869	711.606	1126.5	1103.9	1082.5	0.679
x2 = 0.6005	733.301	730.025	725.938	1141.9	1120.8	1099.2	0.854
x2 = 0.7004	749.66	746.763	742.943	1162.2	1141.1	1120.6	1.11
x2 = 0.8202	770.812	767.985	764.319	1190.9	1171.5	1151.5	1.541
x2 = 0.8523	776.78	773.953	770.292	1199	1179.9	1160.3	1.685
x2 = 0.8957	785.079	782.252	778.547	1210.5	1192.1	1172.9	1.901
x2 = 0.9476	795.298	792.462	788.743	1225.1	1207.9	1189.6	2.209

CCCCCCCC [octane] + CCCCO
Conditions	mass density, 298.15 K [kg/m3]	mass density, 303.15 K [kg/m3]	mass density, 308.15 K [kg/m3]	speed of sound, 298.15 K [m/s]	speed of sound, 303.15 K [m/s]	speed of sound, 308.15 K [m/s]	viscosity, 298.15 K [mPa·s]
x2 = 0	698.58	694.497	690.416	1172.7	1152.1	1131.7	0.518
x2 = 0.0563	701.448	697.299	693.192	1169.8	1149.2	1128.6	0.525
x2 = 0.1091	704.623	700.473	696.337	1169.4	1148.8	1128.2	0.54
x2 = 0.1579	707.716	703.646	699.455	1169.4	1149	1128.1	0.55
x2 = 0.2245	712.309	708.268	704.085	1170.1	1149.5	1129.2	0.585
x2 = 0.3117	718.911	714.997	710.775	1172.1	1151.8	1131.4	0.636
x2 = 0.4013	726.41	722.577	718.357	1175.4	1155.4	1135.6	0.708
x2 = 0.4519	731.021	727.253	723.057	1177.8	1158.1	1138	0.762
x2 = 0.5106	736.716	733.019	728.779	1181.2	1161.7	1141.9	0.837
x2 = 0.6032	746.6	742.919	738.734	1187.9	1169.1	1149.6	0.992
x2 = 0.7087	759.397	755.747	751.584	1197.5	1179.4	1160.3	1.232
x2 = 0.8063	772.907	769.349	765.239	1208.9	1191.2	1172.8	1.539
x2 = 0.8492	779.452	775.973	771.885	1214.9	1197.5	1179.4	1.711
x2 = 0.909	789.203	786.026	781.895	1223.7	1207.2	1189.3	1.991
x2 = 0.956	797.537	794.495	790.449	1231.9	1215.5	1198.8	2.262
